Values of other authors in patent US20010012851A1, “NITRIC OXIDE RELEASING OXINDOLE PRODRUGS FOR ANAGESIC, ANTI-INFLAMMATORY AND DISEASE-MODIFYING USE” (priority 1999, published 2001).

Legend:
[1] = animal models of acute and chronic inflammation; versus parent NSAID
[2] = acute and chronic administration; versus parent NSAID
[3] = rat; for healing of experimental gastric ulcers (healing rate): daily treatment, Elliott et al. 1995
[4] = rat

Row | SMILES | anti-inflammatory activity [1] | gastric injury [2] | healing of experimental gastric ulcers (healing rate) [3] | mitochondrial damage ([4]; in vivo) | macroscopic damage in the small intestine ([4]; versus flurbiprofen) | healing of experimental gastric ulcers ([3]; earlier knowledge on the NO donor)
1 | O=C(Cc1ccccc1Nc1c(Cl)cccc1Cl)OCCCCO[N+](=O)[O-] [diclofenac nitroxybutylester, diclofenac-4-nitroxybutylester] | comparable to that of their parent NSAIDs | markedly less gastric injury | accelerated | – | – | –
2 | O=C(O)Cc1ccccc1Nc1c(Cl)cccc1Cl [diclofenac] | – | – | no effect | – | – | –
3 | CC(C(=O)OCCCCO[N+](=O)[O-])c1ccc(-c2ccccc2)c(F)c1 (stereo not shown) [flurbiprofen nitroxybutylester] | comparable to that of their parent NSAIDs | markedly less gastric injury | – | associated with mitochondrial damage in vivo | significantly less macroscopic damage | –
4 | O=[N+]([O-])OCC(CO[N+](=O)[O-])O[N+](=O)[O-] [glyceryl trinitrate] | – | – | accelerated | – | – | significantly accelerated
5 | CC(C(=O)OCCCCO[N+](=O)[O-])c1cccc(C(=O)c2ccccc2)c1 (stereo not shown) [ketoprofen nitroxybutylester] | comparable to that of their parent NSAIDs | markedly less gastric injury | – | – | – | –
6 | COc1ccc2cc(CCC(C)=O)ccc2c1 [nabumetone] | – | – | no effect | – | – | –
